Measurements reported in patent publication US12723063B2, “GIPR-agonist compounds” (Eli Lilly and Company, priority 2019, dated 2026).
*1 amine or outer side, *2 acyl side, *3 side chain or, on linkers, in order; H or OH if unused. Where a SMILES comes first, the peptide text is derived from it. Side-chain parts run from the residue outwards. [ ]: non-standard residue; d: D form. The star is where a group is joined. C20 diacid = O=C(O)CCCCCCCCCCCCCCCCCCC(=O)*; C18 diacid = O=C(O)CCCCCCCCCCCCCCCCC(=O)*; γGlu = O=C(O)[C@H](CCC(=O)[*:2])N[*:1]; 4Pal = N[C@@H](Cc1ccncc1)C(=O)O; AEEA = NCCOCCOCC(=O)O; Aib = CC(C)(N)C(=O)O

Experiments:
Assay in all cases: cAMP functional assay (HTRF) in HEK293 cells in presence of 0.1% casein
Assay type in all cases: cell-based
[1] = target: T1, human glucagon receptor (GcgR) (Homo sapiens, UniProt P47871); conditions: HEK293 cells expressing human GcgR, geometric mean, read-out: hGcgR cAMP Rel EC50 nM (SEM, n)
T1 construct: expressed in transfected cells; host or cells: HEK293

[2] = target: T2, human GLP-1 receptor (GLP-1R) (Homo sapiens, UniProt P43220); conditions: HEK293 cells expressing human GLP-1R, geometric mean, read-out: hGLP1R cAMP Rel EC50 nM (SEM, n)
T2 construct: expressed in transfected cells; host or cells: HEK293

[3] = target: T3, human glucose-dependent insulinotropic peptide receptor (GIPR) (Homo sapiens, UniProt P48546); conditions: HEK293 cells expressing human GIPR, geometric mean, read-out: hGIPR cAMP Rel EC50 nM (SEM, n)
T3 construct: expressed in transfected cells; host or cells: HEK293
T3 sequence (P48546 22-466): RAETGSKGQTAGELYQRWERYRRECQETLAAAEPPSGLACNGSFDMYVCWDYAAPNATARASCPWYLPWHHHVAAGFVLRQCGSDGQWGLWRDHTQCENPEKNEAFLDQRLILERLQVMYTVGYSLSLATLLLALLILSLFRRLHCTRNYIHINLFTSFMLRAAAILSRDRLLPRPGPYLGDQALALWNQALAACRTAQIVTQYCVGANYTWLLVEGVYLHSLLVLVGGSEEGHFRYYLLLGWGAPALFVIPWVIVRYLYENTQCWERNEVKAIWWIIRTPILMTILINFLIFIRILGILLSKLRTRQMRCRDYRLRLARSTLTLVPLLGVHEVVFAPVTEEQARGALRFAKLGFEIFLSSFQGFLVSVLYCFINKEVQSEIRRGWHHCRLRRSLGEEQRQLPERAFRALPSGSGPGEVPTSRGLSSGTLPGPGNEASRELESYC

T2 sequence (P43220 24-463): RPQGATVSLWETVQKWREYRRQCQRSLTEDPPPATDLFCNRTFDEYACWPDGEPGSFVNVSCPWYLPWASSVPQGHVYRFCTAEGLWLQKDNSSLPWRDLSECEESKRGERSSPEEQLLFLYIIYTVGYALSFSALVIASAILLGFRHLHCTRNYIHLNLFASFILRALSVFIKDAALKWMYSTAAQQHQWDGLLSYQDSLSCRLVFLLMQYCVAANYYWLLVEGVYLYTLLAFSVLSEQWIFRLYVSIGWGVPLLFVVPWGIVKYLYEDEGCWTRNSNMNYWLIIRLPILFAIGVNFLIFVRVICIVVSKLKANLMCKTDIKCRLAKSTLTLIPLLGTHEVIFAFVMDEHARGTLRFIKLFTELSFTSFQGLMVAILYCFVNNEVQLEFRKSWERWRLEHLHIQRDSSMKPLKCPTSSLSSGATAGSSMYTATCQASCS
T1 sequence (P47871 26-477): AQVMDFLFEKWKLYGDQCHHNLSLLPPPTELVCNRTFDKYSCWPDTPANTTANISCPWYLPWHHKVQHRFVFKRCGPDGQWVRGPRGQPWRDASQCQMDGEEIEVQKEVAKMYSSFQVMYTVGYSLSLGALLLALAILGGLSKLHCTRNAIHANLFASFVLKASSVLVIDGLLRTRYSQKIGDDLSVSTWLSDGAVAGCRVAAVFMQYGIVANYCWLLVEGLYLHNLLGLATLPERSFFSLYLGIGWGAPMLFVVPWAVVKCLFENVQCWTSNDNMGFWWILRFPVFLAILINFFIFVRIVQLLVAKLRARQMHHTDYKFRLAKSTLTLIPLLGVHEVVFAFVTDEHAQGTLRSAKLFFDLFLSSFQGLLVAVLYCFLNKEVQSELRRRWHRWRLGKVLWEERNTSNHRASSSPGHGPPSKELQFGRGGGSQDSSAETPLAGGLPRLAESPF

SMILES | EC50 [1] [nM] | EC50 [2] [nM] | EC50 [3] [nM]
CC[C@H](C)[C@H](NC(=O)[C@H](CO)NC(=O)[C@H](Cc1ccc(O)cc1)NC(=O)[C@H](CC(=O)O)NC(=O)[C@H](CO)NC(=O)[C@@H](NC(=O)[C@H](Cc1ccccc1)NC(=O)[C@@H](NC(=O)CNC(=O)[C@H](CCC(=O)O)NC(=O)C(C)(C)NC(=O)[C@@H](N)Cc1ccc(O)cc1)[C@@H](C)O)[C@@H](C)CC)C(=O)N[C@@H](CC(C)C)C(=O)N[C@@H](CC(C)C)C(=O)N[C@@H](CC(=O)O)C(=O)N[C@@H](CCCCN)C(=O)N[C@@H](CCCCNC(=O)COCCOCCNC(=O)COCCOCCNC(=O)CC[C@H](NC(=O)CCCCCCCCCCCCCCCCC(=O)O)C(=O)O)C(=O)N[C@@H](Cc1c[nH]cn1)C(=O)N[C@@H](CCC(N)=O)C(=O)NC(C)(C)C(=O)N[C@@H](CC(=O)O)C(=O)N[C@@H](Cc1ccccc1)C(=O)N[C@H](C(=O)N[C@@H](CCC(=O)O)C(=O)N[C@@H](Cc1ccncc1)C(=O)N[C@@H](CC(C)C)C(=O)N[C@@H](CC(C)C)C(=O)N[C@@H](C)C(=O)NCC(=O)NCC(=O)N1CCC[C@H]1C(=O)N[C@@H](CO)C(=O)N[C@@H](CO)C(=O)NCC(=O)N[C@@H](C)C(=O)N1CCC[C@H]1C(=O)N1CCC[C@H]1C(=O)N1CCC[C@H]1C(=O)N[C@@H](CO)C(N)=O)C(C)C [Example 22] | 1250 | > 5000 | 0.0345
CC[C@H](C)[C@H](NC(=O)[C@H](CO)NC(=O)[C@H](Cc1ccc(O)cc1)NC(=O)[C@H](CC(=O)O)NC(=O)[C@H](CO)NC(=O)[C@@H](NC(=O)[C@H](Cc1ccccc1)NC(=O)[C@@H](NC(=O)CNC(=O)[C@H](CCC(=O)O)NC(=O)[C@@H](C)NC(=O)[C@@H](N)Cc1ccc(O)cc1)[C@@H](C)O)[C@@H](C)CC)C(=O)N[C@@H](CC(C)C)C(=O)N[C@@H](CC(C)C)C(=O)N[C@@H](CC(=O)O)C(=O)N[C@@H](CCCCN)C(=O)N[C@@H](CCCCNC(=O)COCCOCCNC(=O)COCCOCCNC(=O)CC[C@H](NC(=O)CCCCCCCCCCCCCCCCC(=O)O)C(=O)O)C(=O)N[C@@H](C)C(=O)N[C@@H](CCC(N)=O)C(=O)NC(C)(C)C(=O)N[C@@H](CC(=O)O)C(=O)N[C@@H](Cc1ccccc1)C(=O)N[C@H](C(=O)N[C@@H](CC(N)=O)C(=O)N[C@@H](Cc1c[nH]c2ccccc12)C(=O)N[C@@H](CC(C)C)C(=O)N[C@@H](CC(C)C)C(=O)N[C@@H](C)C(=O)N[C@@H](CCC(N)=O)C(=O)NCC(=O)N1CCC[C@H]1C(=O)N[C@@H](CO)C(=O)N[C@@H](CO)C(=O)NCC(=O)N[C@@H](C)C(=O)N1CCC[C@H]1C(=O)N1CCC[C@H]1C(=O)N1CCC[C@H]1C(=O)N[C@@H](CO)C(N)=O)C(C)C [Example 2] | 608 | > 5000 | 0.0123
CC[C@H](C)[C@H](NC(=O)[C@H](CCCCN)NC(=O)[C@H](CC(=O)O)NC(=O)[C@H](CC(C)C)NC(=O)[C@H](CC(C)C)NC(=O)[C@@H](NC(=O)[C@H](CO)NC(=O)[C@H](Cc1ccc(O)cc1)NC(=O)[C@H](CC(=O)O)NC(=O)[C@H](CO)NC(=O)[C@@H](NC(=O)[C@H](Cc1ccccc1)NC(=O)[C@@H](NC(=O)CNC(=O)[C@H](CCC(=O)O)NC(=O)[C@@H](C)NC(=O)[C@@H](N)Cc1ccc(O)cc1)[C@@H](C)O)[C@@H](C)CC)[C@@H](C)CC)C(=O)N[C@@H](C)C(=O)N[C@@H](CCC(N)=O)C(=O)NC(C)(C)C(=O)N[C@@H](CC(=O)O)C(=O)N[C@@H](Cc1ccccc1)C(=O)N[C@H](C(=O)N[C@@H](CC(N)=O)C(=O)N[C@@H](Cc1c[nH]c2ccccc12)C(=O)N[C@@H](CCCCNC(=O)COCCOCCNC(=O)COCCOCCNC(=O)CC[C@H](NC(=O)CCCCCCCCCCCCCCCCC(=O)O)C(=O)O)C(=O)N[C@@H](CC(C)C)C(=O)N[C@@H](C)C(=O)N[C@@H](CCC(N)=O)C(=O)NCC(=O)N1CCC[C@H]1C(=O)N[C@@H](CO)C(=O)N[C@@H](CO)C(=O)NCC(=O)N[C@@H](C)C(=O)N1CCC[C@H]1C(=O)N1CCC[C@H]1C(=O)N1CCC[C@H]1C(=O)N[C@@H](CO)C(N)=O)C(C)C [Example 93] (H-Y[dA]EGTFISDYSILLDKIAQ[Aib]DFVNWK([AEEA-AEEA-γGlu-C18 diacid])LAQGPSSGAPPPS-NH2) | > 5000 | 884 | 0.00482
CC[C@H](C)[C@H](NC(=O)[C@H](Cc1ccccc1)NC(=O)[C@@H](NC(=O)CNC(=O)[C@H](CCC(=O)O)NC(=O)C(C)(C)NC(=O)[C@@H](N)Cc1ccc(O)cc1)[C@@H](C)O)C(=O)N[C@@H](CO)C(=O)N[C@@H](CC(=O)O)C(=O)N[C@@H](Cc1ccc(O)cc1)C(=O)N[C@@H](CO)C(=O)N[C@H](C(=O)NC(C)(C)C(=O)N[C@@H](CC(C)C)C(=O)N[C@@H](CC(=O)O)C(=O)N[C@@H](CCCCN)C(=O)N[C@@H](CCCCNC(=O)COCCOCCNC(=O)COCCOCCNC(=O)CC[C@H](NC(=O)CCCCCCCCCCCCCCCCC(=O)O)C(=O)O)C(=O)N[C@@H](Cc1c[nH]cn1)C(=O)N[C@@H](CCC(N)=O)C(=O)NC(C)(C)C(=O)N[C@@H](CC(=O)O)C(=O)N[C@@H](Cc1ccccc1)C(=O)N[C@H](C(=O)N[C@@H](CCC(=O)O)C(=O)N[C@@H](Cc1ccncc1)C(=O)N[C@@H](CC(C)C)C(=O)N[C@@H](CC(C)C)C(=O)N[C@@H](C)C(=O)NCC(=O)NCC(=O)N1CCC[C@H]1C(=O)N[C@@H](CO)C(=O)N[C@@H](CO)C(=O)NCC(=O)N[C@@H](C)C(=O)N1CCC[C@H]1C(=O)N1CCC[C@H]1C(=O)N1CCC[C@H]1C(=O)N[C@@H](CO)C(N)=O)C(C)C)[C@@H](C)CC [Example 24] | > 5000 | > 5000 | 0.0699
CC[C@H](C)[C@H](NC(=O)[C@H](CO)NC(=O)[C@H](Cc1ccc(O)cc1)NC(=O)[C@H](CC(=O)O)NC(=O)[C@H](CO)NC(=O)[C@@H](NC(=O)[C@H](Cc1ccccc1)NC(=O)[C@@H](NC(=O)CNC(=O)[C@H](CCC(=O)O)NC(=O)[C@@H](C)NC(=O)[C@@H](N)Cc1ccc(O)cc1)[C@@H](C)O)[C@@H](C)CC)C(=O)N[C@@H](CC(C)C)C(=O)N[C@@H](CC(C)C)C(=O)N[C@@H](CC(=O)O)C(=O)N[C@@H](CCCCN)C(=O)N[C@@H](CCCCNC(=O)COCCOCCNC(=O)COCCOCCNC(=O)CC[C@H](NC(=O)CCCCCCCCCCCCCCCCCCC(=O)O)C(=O)O)C(=O)N[C@@H](C)C(=O)N[C@@H](CCC(N)=O)C(=O)N[C@@H](CCC(N)=O)C(=O)N[C@@H](CC(=O)O)C(=O)N[C@@H](Cc1ccccc1)C(=O)N[C@H](C(=O)N[C@@H](CC(N)=O)C(=O)N[C@@H](Cc1c[nH]c2ccccc12)C(=O)N[C@@H](CC(C)C)C(=O)N[C@@H](CC(C)C)C(=O)N[C@@H](C)C(=O)NCC(=O)NCC(=O)N1CCC[C@H]1C(=O)N[C@@H](CO)C(=O)N[C@@H](CO)C(=O)NCC(=O)N[C@@H](C)C(=O)N1CCC[C@H]1C(=O)N1CCC[C@H]1C(=O)N1CCC[C@H]1C(=O)N[C@@H](CO)C(N)=O)C(C)C [Example 12] (H-Y[dA]EGTFISDYSILLDKK([AEEA-AEEA-γGlu-C20 diacid])AQQDFVNWLLAGGPSSGAPPPS-NH2) | > 5000 | > 100 | 0.0911
CC[C@H](C)[C@H](NC(=O)[C@H](CO)NC(=O)[C@H](Cc1ccc(O)cc1)NC(=O)[C@H](CC(=O)O)NC(=O)[C@H](CO)NC(=O)[C@@H](NC(=O)[C@H](Cc1ccccc1)NC(=O)[C@@H](NC(=O)CNC(=O)[C@H](CCC(=O)O)NC(=O)C(C)(C)NC(=O)[C@@H](N)Cc1ccc(O)cc1)[C@@H](C)O)[C@@H](C)CC)C(=O)N[C@@H](C)C(=O)N[C@@H](CC(C)C)C(=O)N[C@@H](CC(=O)O)C(=O)N[C@@H](CCCCN)C(=O)N[C@@H](CCCCNC(=O)COCCOCCNC(=O)COCCOCCNC(=O)CC[C@H](NC(=O)CCCCCCCCCCCCCCCCC(=O)O)C(=O)O)C(=O)N[C@@H](Cc1c[nH]cn1)C(=O)N[C@@H](CCC(N)=O)C(=O)NC(C)(C)C(=O)N[C@@H](CC(=O)O)C(=O)N[C@@H](Cc1ccccc1)C(=O)N[C@H](C(=O)N[C@@H](CCC(=O)O)C(=O)N[C@@H](Cc1ccncc1)C(=O)N[C@@H](CC(C)C)C(=O)N[C@@H](CC(C)C)C(=O)N[C@@H](C)C(=O)NCC(=O)NCC(=O)N1CCC[C@H]1C(=O)N[C@@H](CO)C(=O)N[C@@H](CO)C(=O)NCC(=O)N[C@@H](C)C(=O)N1CCC[C@H]1C(=O)N1CCC[C@H]1C(=O)N1CCC[C@H]1C(=O)N[C@@H](CO)C(N)=O)C(C)C [Example 21] (H-Y[Aib]EGTFISDYSIALDKK([AEEA-AEEA-γGlu-C18 diacid])HQ[Aib]DFVE[4Pal]LLAGGPSSGAPPPS-NH2) | > 5000 | > 5000 | 0.291
